Results from patent publication US20170258871A1, “COMBINED USE OF A TRKA INHIBITOR AND AN EPHA2 INHIBITOR FOR USING IN THE TREATMENT OF SOLID CANCERS, AND METHOD FOR THE PROGNOSIS OF SURVIVAL OF A PATIENT WHO HAS A SOLID CANCER” (UNIVERSITE DES SCIENCES ET TECHNOLOGIES DE LILLE, priority 2014, published 2017).

What was measured:
[1] = system: EphA2; test: Western blot of EphA2 expression after siRNA; assay type: cell-based; conditions: MDA-MB-231 HA-TrkA transfected with siEphA2
Experimental: D. Cells MDA-MB-231 HA-TrkA were transfected with siEphA2 and then treated with proNGF N.C. (30 min). The recruitment of the sortilin and EphA2 was determined after anti-HA immunoprecipitation.
The sequences of siRNA used against EphA2 (siEphA2) at 100 pmol for each transfection, and against TrkA (pool of 3 siTrkA 1, 2 and 3) are given in table 1. The transfections of siRNA are produced by means of […]in™ according to the manufacturers instructions (POL409-10, Polyplus transfection, Ozyme, Saint Quentin en Yvelines, France).
After treatment, the cells were lysed (lysis buffer: 40 mM HEPES pH 7.5; 1 mM EDTA pH 8.0; 120 mM NaCl; 10 mM NaPPi; 50 mM NaF; 1.5 mM Na3VO4; 1% Triton X 100; 0.1% SDS; 1 mM PMSF; 10% glycerol and 1/100 th of protease inhibitor cocktail (Sigma) (20 min; 4° C.)). The lysates were recovered and clarified by centrifugation (12,000 g; 10 min; 4° C.). The supernatant was then stored at −80° C. until use. The protein extracts were diluted to 2 μg·μL−1 in a Laemmli 1× buffer (7 min; 100° C.) then deposited and separated on SDS-PAGE (concentration gel 3.6% acrylamide and separation gel 7.5% to 10% acrylamide (thickness 1 mm); 180 V; 10 min then 200 V constant; until output of the migration front). […] The membranes were placed in an image analyser (LAS 4000; Fuji) connected to a computer which allowed image generation (software Image Reader LAS 4000). […]

[2] = system: MDA-MB-231 HA-TrkA tumours; test: Xenograft of MDA-MB-231 HA-TrkA in SCID mice, tumour volume (Experiment 1); assay type: in vivo; conditions: 3 injections every 3 days from day 14; CEP-701 10 mg/kg intraperitoneal, siEphA2 7.5 microg/mouse close to the tumour
Experimental: FIG. 9: A study of the inhibition of TrkA and EphA2 on tumour development in vivo. The tumours were developed without any intervention for 14 days and then subjected to 3 injections (every 3 days, black arrows) of solvent (control), CEP-701 (10 mg/kg), siEphA2 (7.5 microg/mouse) or CEP-701 (10 mg/kg) and siEphA2 (7.5 microg/mouse). The experiments were stopped 31 days after the first injection of the treatment for ethical considerations after the death of the control mice. A) The tumour volumes were evaluated by measuring the length (;) and the width (w) and then calculating the volume using the formula π/6×l×W×(l+w)/2; the Mann and Whitney test was carried out between the control group and CEP-701 (a), between the control groups and siEphA2 (b), between the control groups and CEP-701+siEphA2 (c), and between the groups siEphA2 and CEP-701+siEphA2 (d)*, P<0.05; **, P<0.01; ns: not significant. B) Study of the inhibition of the expression of receptors by siRNA on the overall survival of SCID mice. […] The tumour volumes were evaluated by measuring the length (l) and width (w) and then calculating the volume using the formula π/6×l×W×(l+w)/2. […] Significance was measured using the log-rank test (P=0.0022). […]
Experiment 1: the mice used were six-week old SCID females. […] The tumour volume was measured according to the following formula: π/6×length×width×(width+length)/2. […]

siEphA2: siRNA against EphA2, GCAAGGAAGUGGUACUGCUGGACUU (SEQ ID NO: 1) (listed as RNA, chemistry not given here)
expression of EphA2 protein [1]: completely abolished the expression
tumour volume / growth of xenografted tumours vs control [2]: strongly reduces the growth of xenografted tumours
